# According to ChEMBL document CHEMBL4190365, “Synthesis and antiproliferative properties of new hydrophilic esters of triterpenic acids” (Eur J Med Chem, 2017):
# Experiments:
# Type in all cases: functional, cell-based
# [1] = tested on: G-361; experiment: Cytotoxicity in human G361 cells assessed as reduction in cell viability incubated for 72 hrs by calcein AM cytotoxicity assay
# [2] = tested on: MCF7; experiment: Cytotoxicity in human MCF7 cells assessed as reduction in cell viability incubated for 72 hrs by calcein AM cytotoxicity assay
# [3] = tested on: BJ; experiment: Cytotoxicity in human BJ cells assessed as reduction in cell viability incubated for 72 hrs by calcein AM cytotoxicity assay
# [4] = tested on: CCRF-CEM; experiment: Cytotoxicity in human CEM cells assessed as reduction in cell viability incubated for 72 hrs by calcein AM cytotoxicity assay
# [5] = tested on: HeLa; experiment: Cytotoxicity in human HeLa cells assessed as reduction in cell viability incubated for 72 hrs by calcein AM cytotoxicity assay; conditions: Homo sapiens, HeLa, 72 h
SMILES,"IC50 ([1]; Homo sapiens, G-361, 72 h)","IC50 ([2]; Homo sapiens, MCF7, 72 h)","IC50 ([3]; Homo sapiens, BJ, 72 h)","IC50 ([4]; Homo sapiens, CCRF-CEM, 72 h)",IC50 [5],IC50 ([1]; g-361),IC50 ([2]; mcf7),IC50 ([3]; bj),IC50 ([4]; ccrf-cem)
CC(=O)OC[C@H]1O[C@@H](OC(=O)[C@]23CC[C@@H](C(C)C)[C@@H]2[C@H]2CC[C@@H]4[C@@]5(C)CC[C@H](O)C(C)(C)[C@@H]5CC[C@@]4(C)[C@]2(C)CC3)[C@H](OC(C)=O)[C@@H](OC(C)=O)[C@@H]1OC(C)=O,8.1 µM,13.9 µM,> 50 µM,18.6 µM,15.6 µM,,,,
C=C(C)[C@@H]1CC[C@]2(C(=O)O[C@@H]3O[C@H](COC(C)=O)[C@@H](OC(C)=O)[C@H](OC(C)=O)[C@H]3OC(C)=O)CC[C@]3(C)[C@H](CC[C@@H]4[C@@]5(C)CC[C@H](O)C(C)(C)[C@@H]5CC[C@]43C)[C@@H]12,> 50 µM,> 50 µM,> 50 µM,> 50 µM,> 50 µM,,,,
CC(C)[C@@H]1CC[C@]2(C(=O)OCCN3CCOCC3)CC[C@]3(C)[C@H](CC[C@@H]4[C@@]5(C)CC[C@H](O)C(C)(C)[C@@H]5CC[C@]43C)[C@@H]12,33.8 µM,37.6 µM,37.4 µM,45.8 µM,31.8 µM,,,,
C=C(C)[C@@H]1CC[C@]2(C(=O)OCC(=O)O)CC[C@]3(C)[C@H](CC[C@@H]4[C@@]5(C)CC[C@H](O)C(C)(C)[C@@H]5CC[C@]43C)[C@@H]12,> 50 µM,> 50 µM,> 50 µM,> 50 µM,> 50 µM,,,,
CC(C)[C@@H]1CC[C@]2(C(=O)O[C@@H]3O[C@H](CO)[C@@H](O)[C@H](O)[C@H]3O)CC[C@]3(C)[C@H](CC[C@@H]4[C@@]5(C)CC[C@H](O)C(C)(C)[C@@H]5CC[C@]43C)[C@@H]12,> 50 µM,> 50 µM,> 50 µM,> 50 µM,> 50 µM,,,,
C=C(C)[C@@H]1CC[C@]2(C(=O)OCC(=O)OCc3ccccc3)CC[C@]3(C)[C@H](CC[C@@H]4[C@@]5(C)CC[C@H](O)C(C)(C)[C@@H]5CC[C@]43C)[C@@H]12,22.2 µM,> 50 µM,> 50 µM,21.9 µM,> 50 µM,,,,
CC(=O)O[C@H]1CC[C@]2(C)[C@H]3CC[C@@H]4C5=C(C(C)C)C(=O)C[C@]5(C(=O)OCC(=O)O)CC[C@@]4(C)[C@]3(C)CC[C@H]2C1(C)C,45.6 µM,> 50 µM,> 50 µM,24.2 µM,47.9 µM,,,,
CC(=O)OC[C@@]1(C(=O)OCCN2CCCC2)CC[C@]2(C)[C@H](CC[C@@H]3[C@@]4(C)CC[C@H](OC(C)=O)C(C)(C)[C@@H]4CC[C@]32C)[C@@H]1O,7.4 µM,10 µM,14.1 µM,8.3 µM,10.6 µM,,,,
C=C(C)[C@@H]1CC[C@]2(C(=O)OCCN3CCCC3)CC[C@]3(C)[C@H](CC[C@@H]4[C@@]5(C)CC[C@H](O)C(C)(C)[C@@H]5CC[C@]43C)[C@@H]12,,,,,,7.1 µM,14.3 µM,15.5 µM,2.3 µM
CC(=O)OC[C@@]1(C(=O)OCCN2CCCC2)CC[C@]2(C)[C@H](CC[C@@H]3[C@@]4(C)CC[C@H](OC(C)=O)C(C)(C)[C@@H]4CC[C@]32C)C1=O,20.3 µM,> 50 µM,> 50 µM,25.8 µM,> 50 µM,,,,
CC(C)[C@@H]1CC[C@]2(C(=O)OCCN3CCCC3)CC[C@]3(C)[C@H](CC[C@@H]4[C@@]5(C)CC[C@H](O)C(C)(C)[C@@H]5CC[C@]43C)[C@@H]12,8.2 µM,10.3 µM,17 µM,2.8 µM,7.7 µM,,,,
CC(=O)OC[C@H]1O[C@@H](OC(=O)[C@]23CC[C@@H](C(C)C)[C@@H]2[C@H]2CC[C@@H]4[C@@]5(C)CC[C@H](O)C(C)(C)[C@@H]5CC[C@@]4(C)[C@]2(C)CC3)[C@H](OC(C)=O)[C@@H](OC(C)=O)[C@H]1OC(C)=O,4.7 µM,2.8 µM,> 50 µM,8.6 µM,5.1 µM,,,,
CC(C)[C@@H]1CC[C@]2(C(=O)OCCN3CCCCC3)CC[C@]3(C)[C@H](CC[C@@H]4[C@@]5(C)CC[C@H](O)C(C)(C)[C@@H]5CC[C@]43C)[C@@H]12,32.2 µM,31.8 µM,45.1 µM,,26.7 µM,,,,19.6 µM
COCCOC(=O)[C@@]12CC[C@]3(C)[C@H](CC[C@@H]4[C@@]5(C)CC[C@H](OC(C)=O)C(C)(C)[C@@H]5CC[C@]43C)C1=C(C(C)C)C(=O)C2,19.9 µM,42.5 µM,> 50 µM,17.8 µM,> 50 µM,,,,
CC(=O)OC[C@@]1(C(=O)OCCN2CCCCC2)CC[C@]2(C)[C@H](CC[C@@H]3[C@@]4(C)CC[C@H](OC(C)=O)C(C)(C)[C@@H]4CC[C@]32C)[C@@H]1O,> 50 µM,27.2 µM,> 50 µM,> 50 µM,> 50 µM,,,,
